{
  "source": "PubChem BioAssay AID1963450",
  "about": "(Molecular Pharmacology Branch, DTP, NCI, 2024)",
  "tested_on": "556581-035-R-J1-PDC complex spheroid growth",
  "assay": "Anticancer human tumor 556581-035-R-J1-PDC patient-derived ovarian carcinoma cell line growth inhibition [Asc]",
  "conditions": "for viability, T/C: stronger effect = lower value",
  "summary_of_the_method": "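Complex solid-tumor spheroids incorporating human endothelial and mesenchymal stem cells received single agents or combinations over half-log dilution ranges anchored to clinical Cmax.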",
  "note": "“And” between values parts separate entries of the source, which are not always exact repeats. Equal entries are not always repeated.",
  "data": [
    {"molecule": "NC1CCC(NC2CC2c2ccccc2)CC1", "note": "(configuration not stated) + CCN1C(C(=O)NC23CCC(C(=O)O)(CC2)CC3)C(c2cccc(Cl)c2F)C2(C(=O)Nc3cc(Cl)ccc32)C12CCCCC2;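 note: spheroids exposed to agents for 7 days before viability read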", "values": [
      {"measurement": "IC50", "setting": "curve of first compound, second compound 0.03 µM", "value": "> 0.1", "unit": "µM"},
      {"measurement": "IC50", "setting": "curve of first compound, second compound 0.0949 µM", "value": "> 0.1", "unit": "µM"},
      {"measurement": "IC50", "setting": "curve of first compound, second compound 0.3 µM", "value": "> 0.1", "unit": "µM"},
      {"measurement": "IC50", "setting": "curve of first compound, second compound 0.949 µM", "value": "> 0.1", "unit": "µM"},
      {"measurement": "IC50", "setting": "curve of first compound, second compound 3 µM", "value": "> 0.1", "unit": "µM"},
      {"measurement": "viability, T/C", "setting": "second compound 0.03 µM, first compound 0.000316 µM", "value": 105, "unit": "%"},
      {"measurement": "viability, T/C", "setting": "second compound 0.03 µM, first compound 0.001 µM", "value": 103, "unit": "%"},
      {"measurement": "viability, T/C", "setting": "second compound 0.03 µM, first compound 0.00316 µM", "value": 107, "unit": "%"},
      {"measurement": "viability, T/C", "setting": "second compound 0.03 µM, first compound 0.01 µM", "value": 98.7, "unit": "%"},
      {"measurement": "viability, T/C", "setting": "second compound 0.03 µM, first compound 0.0316 µM", "value": 97.7, "unit": "%"},
      {"measurement": "viability, T/C", "setting": "second compound 0.03 µM, first compound 0.1 µM", "value": 84.5, "unit": "%"},
      {"measurement": "viability, T/C", "setting": "second compound 0.0949 µM, first compound 0.000316 µM", "value": 113, "unit": "%"},
      {"measurement": "viability, T/C", "setting": "second compound 0.0949 µM, first compound 0.001 µM", "value": 105, "unit": "%"},
      {"measurement": "viability, T/C", "setting": "second compound 0.0949 µM, first compound 0.00316 µM", "value": 100, "unit": "%"},
      {"measurement": "viability, T/C", "setting": "second compound 0.0949 µM, first compound 0.01 µM", "value": 93, "unit": "%"},
      {"measurement": "viability, T/C", "setting": "second compound 0.0949 µM, first compound 0.0316 µM", "value": 107, "unit": "%"},
      {"measurement": "viability, T/C", "setting": "second compound 0.0949 µM, first compound 0.1 µM", "value": 103, "unit": "%"},
      {"measurement": "viability, T/C", "setting": "second compound 0.3 µM, first compound 0.000316 µM", "value": 108, "unit": "%"},
      {"measurement": "viability, T/C", "setting": "second compound 0.3 µM, first compound 0.001 µM", "value": 100, "unit": "%"},
      {"measurement": "viability, T/C", "setting": "second compound 0.3 µM, first compound 0.00316 µM", "value": 105, "unit": "%"},
      {"measurement": "viability, T/C", "setting": "second compound 0.3 µM, first compound 0.01 µM", "value": 100, "unit": "%"},
      {"measurement": "viability, T/C", "setting": "second compound 0.3 µM, first compound 0.0316 µM", "value": 97.7, "unit": "%"},
      {"measurement": "viability, T/C", "setting": "second compound 0.3 µM, first compound 0.1 µM", "value": 96.6, "unit": "%"},
      {"measurement": "viability, T/C", "setting": "second compound 0.949 µM, first compound 0.000316 µM", "value": 107, "unit": "%"},
      {"measurement": "viability, T/C", "setting": "second compound 0.949 µM, first compound 0.001 µM", "value": 92.1, "unit": "%"},
      {"measurement": "viability, T/C", "setting": "second compound 0.949 µM, first compound 0.00316 µM", "value": 82.9, "unit": "%"},
      {"measurement": "viability, T/C", "setting": "second compound 0.949 µM, first compound 0.01 µM", "value": 106, "unit": "%"},
      {"measurement": "viability, T/C", "setting": "second compound 0.949 µM, first compound 0.0316 µM", "value": 95.2, "unit": "%"},
      {"measurement": "viability, T/C", "setting": "second compound 0.949 µM, first compound 0.1 µM", "value": 96.5, "unit": "%"},
      {"measurement": "viability, T/C", "setting": "second compound 3 µM, first compound 0.000316 µM", "value": 85.7, "unit": "%"},
      {"measurement": "viability, T/C", "setting": "second compound 3 µM, first compound 0.001 µM", "value": 101, "unit": "%"},
      {"measurement": "viability, T/C", "setting": "second compound 3 µM, first compound 0.00316 µM", "value": 89.1, "unit": "%"},
      {"measurement": "viability, T/C", "setting": "second compound 3 µM, first compound 0.01 µM", "value": 85.1, "unit": "%"},
      {"measurement": "viability, T/C", "setting": "second compound 3 µM, first compound 0.0316 µM", "value": 92.8, "unit": "%"},
      {"measurement": "viability, T/C", "setting": "second compound 3 µM, first compound 0.1 µM", "value": 92.7, "unit": "%"}
    ]},
    {"molecule": "CCN1CCN(Cc2ccc(Nc3ncc(F)c(-c4cc(F)c5nc(C)n(C(C)C)c5c4)n3)nc2)CC1", "values": [
      {"measurement": "viability, T/C", "setting": "compound 0.00316 µM", "value": "105% and 78% and 90.7%"},
      {"measurement": "viability, T/C", "setting": "compound 0.01 µM", "value": "84.4% and 87.4% and 107%"},
      {"measurement": "viability, T/C", "setting": "compound 0.0316 µM", "value": "88.9% and 97.7% and 107%"},
      {"measurement": "viability, T/C", "setting": "compound 0.1 µM", "value": "85.2% and 84.8% and 106%"},
      {"measurement": "viability, T/C", "setting": "compound 0.316 µM", "value": "76.2% and 64.5% and 69.5%"},
      {"measurement": "viability, T/C", "setting": "compound 1 µM", "value": "76.5% and 76.4% and 66.7%"},
      {"measurement": "IC50", "setting": "curve of compound", "value": "> 1", "unit": "µM"}
    ]},
    {"molecule": "O=C(c1cc(Cc2n[nH]c(=O)c3ccccc23)ccc1F)N1CCN(C(=O)C2CC2)CC1", "note": "+ CNC(C)C(=O)NC1CN(S(=O)(=O)c2cccc(S(=O)(=O)N3CCC4CCC(C(=O)NC(c5ccccc5)c5ccccc5)N4C(=O)C(NC(=O)C(C)NC)C3)c2)CCC2CCC(C(=O)NC(c3ccccc3)c3ccccc3)N2C1=O", "values": [
      {"measurement": "IC50", "setting": "curve of first compound, second compound 0.01 µM", "value": "> 10", "unit": "µM"},
      {"measurement": "IC50", "setting": "curve of first compound, second compound 0.0316 µM", "value": "> 10", "unit": "µM"},
      {"measurement": "IC50", "setting": "curve of first compound, second compound 0.1 µM", "value": "> 10", "unit": "µM"},
      {"measurement": "IC50", "setting": "curve of first compound, second compound 0.316 µM", "value": "> 10", "unit": "µM"},
      {"measurement": "IC50", "setting": "curve of first compound, second compound 1 µM", "value": 10, "unit": "µM"},
      {"measurement": "viability, T/C", "setting": "second compound 0.01 µM, first compound 0.0316 µM", "value": 83.4, "unit": "%"},
      {"measurement": "viability, T/C", "setting": "second compound 0.01 µM, first compound 0.1 µM", "value": 74.5, "unit": "%"},
      {"measurement": "viability, T/C", "setting": "second compound 0.01 µM, first compound 0.316 µM", "value": 88.2, "unit": "%"},
      {"measurement": "viability, T/C", "setting": "second compound 0.01 µM, first compound 1 µM", "value": 93.8, "unit": "%"},
      {"measurement": "viability, T/C", "setting": "second compound 0.01 µM, first compound 3.16 µM", "value": 52.8, "unit": "%"},
      {"measurement": "viability, T/C", "setting": "second compound 0.01 µM, first compound 10 µM", "value": 56.8, "unit": "%"},
      {"measurement": "viability, T/C", "setting": "second compound 0.0316 µM, first compound 0.0316 µM", "value": 89.3, "unit": "%"},
      {"measurement": "viability, T/C", "setting": "second compound 0.0316 µM, first compound 0.1 µM", "value": 88.7, "unit": "%"},
      {"measurement": "viability, T/C", "setting": "second compound 0.0316 µM, first compound 0.316 µM", "value": 87.3, "unit": "%"},
      {"measurement": "viability, T/C", "setting": "second compound 0.0316 µM, first compound 1 µM", "value": 88.8, "unit": "%"},
      {"measurement": "viability, T/C", "setting": "second compound 0.0316 µM, first compound 3.16 µM", "value": 55.3, "unit": "%"},
      {"measurement": "viability, T/C", "setting": "second compound 0.0316 µM, first compound 10 µM", "value": 73.1, "unit": "%"},
      {"measurement": "viability, T/C", "setting": "second compound 0.1 µM, first compound 0.0316 µM", "value": 84.4, "unit": "%"},
      {"measurement": "viability, T/C", "setting": "second compound 0.1 µM, first compound 0.1 µM", "value": 67, "unit": "%"},
      {"measurement": "viability, T/C", "setting": "second compound 0.1 µM, first compound 0.316 µM", "value": 67.2, "unit": "%"},
      {"measurement": "viability, T/C", "setting": "second compound 0.1 µM, first compound 1 µM", "value": 61.5, "unit": "%"},
      {"measurement": "viability, T/C", "setting": "second compound 0.1 µM, first compound 3.16 µM", "value": 49.1, "unit": "%"},
      {"measurement": "viability, T/C", "setting": "second compound 0.1 µM, first compound 10 µM", "value": 61.2, "unit": "%"},
      {"measurement": "viability, T/C", "setting": "second compound 0.316 µM, first compound 0.0316 µM", "value": 88, "unit": "%"},
      {"measurement": "viability, T/C", "setting": "second compound 0.316 µM, first compound 0.1 µM", "value": 76.3, "unit": "%"},
      {"measurement": "viability, T/C", "setting": "second compound 0.316 µM, first compound 0.316 µM", "value": 86, "unit": "%"},
      {"measurement": "viability, T/C", "setting": "second compound 0.316 µM, first compound 1 µM", "value": 76, "unit": "%"},
      {"measurement": "viability, T/C", "setting": "second compound 0.316 µM, first compound 3.16 µM", "value": 50, "unit": "%"},
      {"measurement": "viability, T/C", "setting": "second compound 0.316 µM, first compound 10 µM", "value": 63.2, "unit": "%"},
      {"measurement": "viability, T/C", "setting": "second compound 1 µM, first compound 0.0316 µM", "value": 76.8, "unit": "%"},
      {"measurement": "viability, T/C", "setting": "second compound 1 µM, first compound 0.1 µM", "value": 84.1, "unit": "%"},
      {"measurement": "viability, T/C", "setting": "second compound 1 µM, first compound 0.316 µM", "value": 73.8, "unit": "%"},
      {"measurement": "viability, T/C", "setting": "second compound 1 µM, first compound 1 µM", "value": 88, "unit": "%"},
      {"measurement": "viability, T/C", "setting": "second compound 1 µM, first compound 3.16 µM", "value": 45.7, "unit": "%"},
      {"measurement": "viability, T/C", "setting": "second compound 1 µM, first compound 10 µM", "value": 61.2, "unit": "%"}
    ]}
  ]
}
